Like-named read-outs stand apart in the source and are kept apart here.
Key:
NMP53^−/− cells = experiment: Colony formation assay on NMP53^−/− cells; format: cell-based, murine; details: colony formation assay; for minimal effective concentration: 5 days, read-out: EC (NMP53^−/−); for selectivity for NMP53^−/− cells: NMP53^−/− versus NMCdkn2a^ARF−/− cells
Description: (§1) To evaluate the effect of small molecules equipped with R-spine interacting moieties, the inventors screened a focused library of proprietary p38a MAP-Kinase inhibitors which were equipped with R-spine interacting pharmacophores. To this end, the inventors utilized a screening system as developed in Dauch et al.^2 The screening system is based on colony formation assays of cell lines isolated from Nras-driven, Trp53-deficient murine HCCs, whose development is dependent on MYC (NMP53^−/− cells), as well as Nras-driven, Cdkn2a^ARF-deficient murine HCCs, which develop independently of MYC (NMCdkn2a^ARF−/− cells). Importantly, NMP53^−/− cells are sensitive to AURKA inhibitors, which induce a conformational shift in AURKA, whereas NMCdkn2a^ARF−/− are not sensitive to such compounds.
(§2) For Colony Formation Assays, cells were seeded at a density of 50 000 cells per 6 well and next day treated with a 2-fold dilution series of the indicated compounds or the highest corresponding DMSO concentration as control. After 5 days, the cells were fixed with a 10% formaldehyde solution for 30 min, washed once with water, stained with a 0.5% crystal violet solution for 30 min and washed twice with water. The compounds effective concentration (EC) was determined according to the lowest concentration in the dilution series, that inhibited cell growth substantially. The resulting benzamide containing hit structure 1, with a twofold selectivity towards NMP53^−/− cells (effective concentration on NMP53^−/− cells (EC): 2 μM, EC on Cdkn2a^ARF−/−: 4 μM, FIG. 1), served as the inventors' starting point for further compound development.

NMCdkn2a^ARF−/− cells = experiment: Colony formation assay on NMCdkn2a^ARF−/− cells; format: cell-based, murine; details: 5 days, read-out: EC (NMCdkn2a^ARF−/−)
Description: as §1, §2

[1] = Mus musculus, 120 h, lowest concentration of 2-fold dilution series that inhibited cell growth substantially

SMILES | minimal effective concentration (NMP53^−/− cells; Mus musculus, 120 h) [µM] | minimal effective concentration (NMCdkn2a^ARF−/− cells; Mus musculus, 120 h) [µM] | further results
Cn1cc(-c2ccc(CNc3ccc(F)c(NC(=O)CCc4ccc[nH]4)c3)cc2)cn1 [Compound 107q, N-(2-fluoro-5-((4-(1-methyl-1H-pyrazol-4-yl)benzyl)amino)phenyl)-3-(1H-pyrrol-2-yl)propanamide] | 0.5 to 1 | 4 | –
CC(=O)Nc1cc(NCc2ccc(-c3cn[nH]c3)cc2)ccc1F [Compound 2b, N-(5-((4-(1H-pyrazole-4-yl)benzyl)amino)-2-fluorophenyl)acetamide] | > 4 | > 4 | minimal effective concentration (NMCdkn2a^ARF−/− cells; [1]): > 4 µM
O=C(CC1CC1)Nc1cc(NCc2cc(-c3cc4cccnc4[nH]3)ccn2)ccc1F [Compound 8ok, N-(5-(((4-(1H-Pyrrolo[2,3-b]pyridin-2-yl)pyridin-2-yl)methyl)amino)-2-fluorophenyl)-2-cyclopropylacetamide] | 0.5 | 1 | –
COc1cc(CNc2ccc(F)c(NC(=O)CCc3ccco3)c2)ccc1-c1cnn(C)c1 [Compound 128b, N-(2-fluoro-5-((3-methoxy-4-(1-methyl-1H-pyrazol-4-yl)benzyl)amino)phenyl)-3-(furan-2-yl)propanamide] | 0.062 | > 0.5 | –
CN(C(=O)CCc1ccco1)c1cc(NCc2ccc(-c3cnn(C)c3)cc2)ccc1F [Compound 4, N-(2-fluoro-5-((4-(1-methyl-1H-pyrazole-4-yl)benzyl)amino)phenyl)-3-(furan-2-yl)-N-methylpropanamide] | > 4 | > 4 | minimal effective concentration (NMP53^−/− cells; [1]): > 4 µM; minimal effective concentration (NMP53^−/− cells; lowest concentration of 2-fold dilution series that inhibited cell growth substantially): >4 µM; minimal effective concentration (NMCdkn2a^ARF−/− cells; [1]): > 4 µM
CC(C)n1cc(-c2ccc(CNc3ccc(F)c(NC(=O)CCc4ccco4)c3)cc2)cn1 [Compound 3d, N-(2-fluoro-5-((4-(1-isopropyl-1H-pyrazole-4-yl)benzyl)amino)phenyl)-3-(furan-2-yl)propanamide] | 4 | 4 | minimal effective concentration (NMP53^−/− cells; [1]): 4 µM; selectivity for NMP53^−/− cells (NMP53^−/− cells): loss of selectivity; minimal effective concentration (NMCdkn2a^ARF−/− cells; [1]): 4 µM
O=C(CCc1ccco1)Nc1cc(NCc2ccc(-c3cn[nH]c3)cc2F)ccc1F [Compound 127c, N-(2-fluoro-5-((2-fluoro-4-(1H-pyrazol-4-yl)benzyl)amino)phenyl)-3-(furan-2-yl)propanamide] | 0.125 | 0.5 to 1 | –
Cn1ccc(Nc2ccc(CNc3ccc(F)c(NC(=O)CCc4ccco4)c3)cc2)n1 [Compound 155, N-(2-fluoro-5-((4-((1-methyl-1H-pyrazol-3-yl)amino)benzyl)amino)phenyl)-3-(furan-2-yl)propanamide] | 0.25 | > 1 | –
O=C(CC1CCCCC1)Nc1cc(NCc2cc(-c3cc4cccnc4[nH]3)ccn2)ccc1F [Compound 8oj, N-(5-(((4-(1H-Pyrrolo[2,3-b]pyridin-2-yl)pyridin-2-yl)methyl)amino)-2-fluorophenyl)-2-cyclohexylacetamide] | 0.5 | 1 | –
COc1cc(-c2cnn(C)c2)ccc1CNc1ccc(F)c(NC(=O)CCc2ccco2)c1 [Compound 128d, N-(2-fluoro-5-((2-methoxy-4-(1-methyl-1H-pyrazol-4-yl)benzyl)amino)phenyl)-3-(furan-2-yl)propanamide] | 0.031 | > 0.5 | –
O=C(CCc1ccco1)Nc1cc(NCc2ccc(-c3cn[nH]c3)cc2)ccc1Cl [Compound 113a, N-(5-((4-(1H-Pyrazol-4-yl)benzyl)amino)-2-chlorphenyl)-3-(furan-2-yl)propanamide] | – | – | minimal effective concentration (NMP53^−/− cells): 0.5 µM; minimal effective concentration (NMCdkn2a^ARF−/− cells): >1 µM
Cn1cc(-c2ccc(CNc3ccc(F)c(NC(=O)Cc4ccco4)c3)cc2)cn1 [Compound 107m, N-(2-fluoro-5-((4-(1-methyl-1H-pyrazol-4-yl)benzyl)amino)phenyl)-2-(furan-2-yl)acetamide] | 0.125 | 16 | –
Cn1cc(-c2ccc(CNc3ccc(F)c(NC(=O)CCc4ccco4)c3)cn2)cn1 [Compound 128e, N-(2-fluoro-5-(((6-(1-methyl-1H-pyrazol-4-yl)pyridin-3-yl)methyl)amino)phenyl)-3-(furan-2-yl)propanamide] | 0.25 | > 2 | –
Cn1cc(-c2ccc(CNc3ccc(F)c(NC(=O)CCc4ccco4)c3)c(F)c2)cn1 [Compound 128c, N-(2-fluoro-5-((2-fluoro-4-(1-methyl-1H-pyrazol-4-yl)benzyl)amino)phenyl)-3-(furan-2-yl)propanamide] | 0.125 | 0.5 to 1 | –
Cc1noc(C)c1-c1ccc(CNc2ccc(F)c(NC(=O)CCc3ccco3)c2)cc1 [Compound 139, N-(5-((4-(3,5-Dimethylisoxazol-4-yl)benzyl)amino)-2-fluorophenyl)-3-(furan-2-yl)propanamide] | 0.5 | 1 | –
Cn1cc(-c2ccc(CNc3ccc(F)c(NC(=O)CCC4CCCO4)c3)cc2)cn1 (centres unmarked) [Compound 107g, N-(2-fluoro-5-((4-(1-methyl-1H-pyrazol-4-yl)benzyl)amino)phenyl)-3-(tetrahydrofuran-2-yl)propanamide] | 0.125 | 2 | –
COc1cc(CNc2ccc(F)c(NC(=O)CCc3ccco3)c2)ccc1-c1cn[nH]c1 [Compound 127b, N-(2-fluoro-5-((3-methoxy-4-(1H-pyrazol-4-yl)benzyl)amino)phenyl)-3-(furan-2-yl)propanamide] | 0.25 | > 1 | –
NCCn1cc(-c2ccc(CNc3ccc(F)c(NC(=O)CCc4ccco4)c3)cc2)cn1 [Compound 167, N-(5-((4-(1-(2-Aminoethyl)-1H-pyrazol-4-yl)benzyl)amino)-2-fluorophenyl)-3-(furan-2-yl)propanamide] | 0.5 | 1 | –
Nc1n[nH]cc1-c1ccc(CNc2ccc(F)c(NC(=O)CCc3ccco3)c2)cc1 [Compound 144, N-(5-((4-(3-Amino-1H-pyrazol-4-yl)benzyl)amino)-2-fluorophenyl)-3-(furan-2-yl)propanamide] | 0.25 | > 1 | –
CCCn1cc(-c2ccc(CNc3ccc(F)c(NC(=O)CCc4ccco4)c3)cc2)cn1 [Compound 3c, N-(2-fluoro-5-((4-(1-propyl-1H-pyrazole-4-yl)benzyl)amino)phenyl)-3-(furan-2-yl)propanamide] | 4 | > 4 | minimal effective concentration (NMP53^−/− cells; [1]): 4 µM; selectivity for NMP53^−/− cells (NMP53^−/− cells): loss of selectivity; minimal effective concentration (NMCdkn2a^ARF−/− cells; [1]): > 4 µM
Cn1cc(-c2ccc(CNc3ccc(F)c(NC(=O)CCc4ccccc4)c3)nc2)cn1 [Compound 130, N-(2-fluoro-5-(((5-(1-methyl-1H-pyrazol-4-yl)pyridin-2-yl)methyl)amino)phenyl)-3-phenylpropanamide] | 0.5 | > 1 | –
Cn1cc(-c2ccc(CNc3ccc(F)c(NC(=O)CCc4ccco4)c3)cc2)c(N)n1 [Compound 145, N-(5-((4-(3-Amino-1-methyl-1H-pyrazol-4-yl)benzyl)amino)-2-fluorophenyl)-3-(furan-2-yl)propanamide] | 0.25 | > 1 | –
Cc1ccc(CCC(=O)Nc2cc(NCc3ccc(-c4cn[nH]c4)cc3)ccc2F)o1 [Compound 106h, N-(5-((4-(1H-Pyrazol-4-yl)benzyl)amino)-2-fluorophenyl)-3-(5-methylfuran-2-yl)propanamide] | 0.25 | 2 | –
Cn1cc(-c2ccc(COc3ccc(F)c(NC(=O)CCc4ccccc4)c3)cc2)cn1 [Compound 124, N-(2-fluoro-5-((4-(1-methyl-1H-pyrazol-4-yl)benzyl)oxy)phenyl)-3-phenylpropanamide] | 0.25 | > 1 | –
O=C(CCc1ccc[nH]1)Nc1cc(NCc2ccc(-c3cn[nH]c3)cc2)ccc1F [Compound 106q, N-(5-((4-(1H-Pyrazol-4-yl)benzyl)amino)-2-fluorophenyl)-3-(1H-pyrrol-2-yl)propanamide] | 1 to 2 | > 4 | –
O=C(CCc1ccco1)Nc1cc(NCc2ccc(-c3cn[nH]c3)nc2)ccc1F [Compound 127e, N-(5-(((6-(1H-Pyrazol-4-yl)pyridin-3-yl)methyl)amino)-2-fluorophenyl)-3-(furan-2-yl)-propanamide] | 0.5 | > 2 | –

Source: patent US20240101538A1, “PROTEIN-PROTEIN INTERACTION MODULATORS OF AURORA KINASE A AND THEIR USE IN THE PREVENTION AND/OR TREATMENT OF CANCER” (EBERHARD KARLS UNIVERSITÄT TÜBINGEN, priority 2020, published 2024)
